# Laboratory results: US9037228B2, “Method and system for detecting electrophysiological changes in pre-cancerous and cancerous tissue” (Epi-Sci, LLC, priority 2002, dated 2015)
# Like-named read-outs stand apart in the source and are kept apart here.
# Columns and labels:
# [1] = tested on: human prostatic epithelial cells; settings: cells grown in presence of DHT
# From the text: FIG. 13 represent measurements of cell membrane potential (ψ) in human prostatic epithelial cells under different growth conditions. A Voltage-sensitive FRET (fluorescent energy transfer) probe was used for potentiometric ratio measurements. It has two fluorescent components: CC2-DMPE (Coumarin) and DISBAC2(3) (Oxonol). The oxonol distributes itself on opposite sides of the cell membrane in a Nernstian manner according to the ψ. The voltage sensitive distribution of oxonol is transduced through a ratiometric fluorescence signal via the coumarin which is bound to the outside surface of the cell membrane thereby amplifying the fluorescence. Measurements were made using a fluorescence microscope and a digital imaging system. The ratio measurements are calibrated using Gramicidin D to depolarize the cell membrane and then varying the external K^+-concentration. The calibrated cell membrane potential in mV is depicted on the y-axis.
# The filled bars indicates the ψ of exponentially growing prostatic epithelial cells before they reach confluence, whereas the open bars depict the ψ of the cells once they reach confluence and cell growth slows.
# [2] = tested on: apical K+ channels of human colonic mucosa; settings: normal colon, 30 mM mucosal TEA after elevated serosal K+, 0.1 mM amiloride present
# Procedure: The potassium permeability of the apical membrane of human colonic mucosa (P^Ka) was determined in surgical specimens of controls and grossly normal-appearing mucosa obtained 10-30 cm proximal to colorectal adenocarcinomas. The mucosa was mounted in Ussing chambers and the basolateral membrane resistance and voltage were nullified by elevating the K^+ in the serosal bathing solution. The apical sodium (Na^+) conductance was blocked with 0.1 mM amiloride. This protocol reduces the equivalent circuit model of the epithelium to an apical membrane conductance and electromotive force in parallel with the paracellular pathway as has been verified by microelectrode studies. […] The serosal bath was remained constant at 125 mM [K].
# colonic mucosa = assay: TEP response of colonic mucosa to topically applied amiloride
# From the text: The measured TEP decreases in response to a topically applied amiloride (a sodium channel blocker) in normal colonic mucosa. This response is reduced by approximately 50% in pre-cancerous mucosa or by greater than 75% in cancerous mucosa. In addition, the loss in sodium conductance results in an increase of impedance of the surface epithelium. This ion transport alteration may be measured by determining the change in TEP as well as the basal impedance. In abnormal pre-cancerous or cancerous tissue, the TEP is lower, the response of the TEP to amiloride is less, and the increase in impedance (observed in normal colon in response to amiloride) is less in abnormal pre-cancerous or cancerous tissue. Similar pharmacological agents may be introduced that alter the effect of chloride or potassium ion transport, which affect abnormal pre-cancerous or cancerous tissue in a different manner than in normal colon tissue.
# [3] = tested on: benign and malignant human breast epithelial cells; assay: Transepithelial potential (TEP) of breast epithelial monolayers in modified Ussing chambers, voltage clamp; format: cell-based
# Procedure: It should be noted that the instantaneous response, illustrated in FIG. 10, is greater in malignant epithelia, whereas the chronic or sustained exposure to estradiol results in a lower increase in TEP (transepithelial electropotential) in malignant cells. Concurrent measurement of surface electropotential and impedance allow the more accurate diagnosis of cancer. […] The cells were grown as monolayers on Millipore filters and grew to confluence in 7 to 10 days. The epithelia were then mounted in modified Ussing chambers and the TEP was measured using a voltage clamp. Increasing doses of estradiol between 0 and 0.8 μM were added (x-axis). The transepithelial potential was measured after each addition and the TEP was measured (y-axis). The different dose response is apparent for benign and malignant epithelia. Malignant epithelia have a lower TEP but undergo an instantaneous increase in TEP of approximately 9 mV (becomes more electronegative and reaches a level of <6 mV) after exposure to only 0.1 μM estradiol and then depolarize to approximately −2 mV with increasing doses of estradiol up to about 0.5 μM.
# breast tissue = assay: Electrophysiological (TEP) response of breast tissue to estradiol given into the duct or sublingually; format: in vivo; settings: into the duct or sublingual 17-β-estradiol (4 mg)
# Procedure: In one method of present invention, estradiol is introduced directly into the duct or systematically following sublingual administration of 17-β-estradiol (4 mg). This agent produces a rapid response, which peaks at approximately 20 minutes. The electrophysiological response depends, in part, on the stage of the patient's menstrual cycle, as well as the condition of the breast tissue. Specifically, in normal breast tissue, a rise in TEP will occur during the follicular (or early) phase. In pre-cancerous or cancerous tissue, this response is abrogated.
# [4] = tested on: human breast epithelial cells; assay: Cell membrane potential (ψ) in human breast epithelial cells, potentiometric fluorescent probe; format: cell-based
# Procedure: Measurements were made using a potentiometric fluorescent probe, and ratiometric measurements, which are calibrated using valinomycin and K^+-gradients. ψs were measured in the presence (closed circles) and absence (open circles) of estradiol (the active metabolite of estrogen). Each symbol is the mean measurement. The upper error bar is the standard error of the mean, and the lower error bar is the 95% confidence level for the observations. The addition of estrogen to cultured breast epithelial cells results in an instantaneous increase in ψ (data not shown) as well as transepithelial potential see FIG. 10. Transepithelial potential (VT) of an epithelium is the sum of the apical (luminal) cell membrane potential (VA) and the basolateral (abluminal) cell membrane potential (VBL). Therefore VT=VA+VBL(changes in VA and VBL will therefore alter VT or transepithelial potential). […] Malignant and transformed cells have a ψ of between −31 and −35 mV in the absence of estradiol and approximately […] when estradiol is present in the culture medium.
# [5] = malignant epithelia, after exposure to 0.1 μM estradiol
compound,measurement,setting,value
"C[C@]12CCC(=O)C[C@@H]1CC[C@@H]1[C@@H]2CC[C@]2(C)[C@@H](O)CC[C@@H]12 [DHT, dihydroxytestosterone]",effect on cell membrane potential ψ,[1]; exponential growth,slightly hyperpolarized
same,effect on cell membrane potential ψ,[1]; on reaching confluence,depolarize
"CC[N+](CC)(CC)CC [TEA, tetraethyl ammonium]",effect on Isc,[2],abrupt increase in Isc
N=C(N)NC(=O)c1nc(Cl)c(N)nc1N [amiloride],reduction of the TEP response to amiloride,colonic mucosa; cancerous mucosa versus normal,greater than 75%
same,effect on measured TEP,"colonic mucosa; normal colonic mucosa, topically applied",decreases
same,reduction of the TEP response to amiloride,colonic mucosa; pre-cancerous mucosa versus normal,approximately 50%
"C[C@]12CC[C@@H]3c4ccc(O)cc4CC[C@H]3[C@@H]1CC[C@@H]2O [estradiol, 17-β-estradiol]",estradiol dose at which TEP response peaks,"[3]; benign epithelia, then remains persistently elevated",~0.3 µM
same,TEP level reached,[3]; [5],< 6 mV
same,instantaneous increase in TEP,[3]; [5],approximately 9 mV
same,TEP after depolarization,"[3]; malignant epithelia, increasing doses of estradiol up to about 0.5 μM",approximately −2 mV
same,time of peak electrophysiological response,breast tissue,approximately 20 minutes
same,cell membrane potential ψ,"[4]; benign breast epithelial cells, estradiol added to the culture media (about −50 mV without)",~−70 mV
same,cell membrane potential ψ,"[4]; malignant and transformed cells, estradiol present in culture medium (−31 to −35 mV without)",approximately 50 mV
